Ends that are not written are not given here.
Legend:
PC12 cells [1] = test: Effect of EDTA or MnCl2 pretreatment on cell adhesion and spreading; type: cell-based, rat; conditions: 5 mM EDTA or 1 mM MnCl2, 15 min; for cell adhesion to laminin after pretreatment / cell adhesion to rLG3 or Ln2-LG3-P2 after pretreatment: 1 h; for cell spreading to laminin after pretreatment / cell spreading to rLG3 or Ln2-LG3-P2 after pretreatment: 3 h
Procedure: PC12 cells were pretreated with either 5 mM EDTA or 1 mM MnCl2 for 15 min at 37° C. and seeded on plates coated with rLG3 or the Ln2-LG3-P2 peptide. To measure cell adhesion, PC12 cells were incubated on the coated plates for 1 h and absorbance was measured. To measure cell spreading, PC12 cells were incubated on the coated plates for 3 h and relative cell area was measured using Image-Pro Plus software.

PC12 cells [2] = test: Cell adhesion assay on coated plates (crystal violet, absorbance 570 nm); type: cell-based, rat
Procedure: The cell adhesion assay was performed as described in a paper published previously by the present inventors (Kim, J. M., et al, Exp. Cell Res, 2005).
Specifically, 24-well culture plates (Nunc, Denmark) were coated with 5 μg/mL human placental laminin (Sigma-Aldrich, St. Louis, Mo.) or 25 μg/mL rLG domain proteins for 12 h at 4° C. The peptides were also coated on the plates by drying for 12 h at room temperature. The substrate-coated plates were blocked with 1% heat-inactivated bovine serum albumin (BSA) in PBS for 1 h at 37° C. and then washed with PBS.
The cells were trypsinized with trypsin/EDTA and resuspended in serum-free culture medium. The cells were added at a density of 2×10^5 cells/500 μL to each plate and incubated in serum-free culture medium for 1 h at 37° C. After incubation, unattached cells were removed by rinsing twice with PBS. The attached cells were fixed with 10% formalin for 15 min and then stained with 0.5% crystal violet for 1 h. Plates were gently washed with distilled water three times and dissolved with 2% SDS for 5 min. Absorbance was measured at 570 nm using a microplate reader (BioRad).
First, PC12 cells were cultured on plates coated with varying amounts of five kinds of Ln2-PG3 peptides and then cell adhesion was observed. The peptides were coated in concentrations ranging from 0 to 125 μg/mL on plates by drying them for 12 h at room temperature.
(§1) The present inventors compared the cellular activities of Ln2-LG3-P2 peptide to scrambled peptide (SEQ ID NO:20, NWEIRCIPGNPF) of Ln2-LG3-P2 peptide and Ln2-LG3-P1 peptide to Ln2-LG3-P5 peptide at a concentration of 62.5 μg/mL where the cell adhesion activity was the maximum. […] PC12 cells were cultured on plates which were coated in the same way for 3 h in serum-free medium and the cell spreading was observed.
(§2) Specifically, to observe cell adhesion, spreading, migration, and neurite outgrowth promotion, the methods described in Experimental examples <2-1> to <2-3> were used and PC12 cells were cultured on plates coated with laminin (5 μg/mL), rLG3 (25 μg/mL), and rLG3-M1 (25 μg/mL) and observed. To observe cell adhesion, PC12 cells were incubated on the coated plates for 1 h and to observe cell spreading, PC12 cells were incubated on the coated plates for 3 h. To observe cell migration, PC12 cells were incubated on the coated plates for […].
(§3) To measure cell adhesion, spreading, migration, and neurite outgrowth promotive activities of PC12 cells using the prepared synthetic peptides that are N- and C-terminal truncated or C-terminal added peptides of the Ln2-LG3-P2 peptide, peptides described in Table 1 were coated onto plates at 62.5 μg/mL and PC12 cells were seeded thereon.

PC12 cells [3] = test: Cell adhesion inhibition assay: peptide pretreatment, adhesion to rLG3-coated plates; type: cell-based, rat; conditions: PC12 cells pretreated with 500 μg/mL peptide; rLG3 25 μg/mL
Procedure: Specifically, PC12 cells were pretreated with the Ln2-LG3-P2 peptide in concentrations of 0, 0.2, 0.4, 0.6, 0.8, 1.0, or 1.2 μg/mL for 10 min at room temperature and then cultured on plates coated with rLG3 (25 μg/mL) for 1 h in serum-free medium.
PC12 cells were pretreated with 500 μg/mL of Ln2-LG3-P1, Ln2-LG3-P2, Ln2-LG3-P3, Ln2-LG3-P4, Ln2-LG3-P5 and SP (scramble peptide) (SEQ ID NO:20) for 10 min at room temperature and then cultured on plates coated with rLG3 (25 μg/mL) in serum-free medium. To observe cell adhesion, PC12 cells were incubated on the coated plates for 1 h and to observe cell spreading, PC12 cells were incubated on the coated plates for 3 h. To observe cell migration, cells were seed into the upper chamber of transwell filters coated with rLG3 (25 μg/mL) and cultured for 24 h. Cell migration was quantified by counting the number of cells that had migrated through the filter.
Specifically, PC12 cells were pretreated with Ln2-LG2-P2 (500 μg/mL) and Ln2-LG3-P2A (500 μg/mL) and then, cell adhesion was observed on plates coated with rLG3 (25 μg/mL).

PC12 cells [4] = test: Cell spreading assay on coated plates (cell surface area); type: cell-based, rat; conditions: 3 h, laminin 5 μg/mL, rLG proteins 25 μg/mL, peptides 62.5 μg/mL
Procedure: To determine cell spreading assays, the cells cultured on plates coated with each rLG domain protein for 1 h or 3 h in Experimental example <2-1> were fixed with 10% formalin. Then, the fixed cells were stained with 0.05% crystal violet for 1 h and plates were gently washed with PBS three times. The surface area of cells was measured with Image-Pro plus software (Version 4.5; Media Cybernetics, Silver Spring, Md.).
as §1, §2, §3

PC12 cells [5] = test: Cell migration assay (transwell migration chambers); type: cell-based, rat; conditions: transwell filters coated with laminin 5 μg/mL, rLG proteins 25 μg/mL or peptides 62.5 μg/mL, 24 h
Procedure: Cell migration assays were performed using transwell migration chambers of 8 μm in pore size (Corning Inc., NY) as described in a paper published previously by the present inventors (Kim, J. M., Min, S. K., Kim, H., Kang, H. K., Jung, S. Y., Lee, S. H., Choi, Y., Roh, S., Jeong, D., and Min, B. M. (2007) Int. J. Mol. Med.).
The lower sides of transwell filters were coated with laminin (5 μg/mL) or rLG proteins (25 μg/mL) for 12 h at 4° C. The lower sides of transwell filters were blocked with 1% BSA in PBS for 1 h at 37° C. Cells were suspended at a density of 4×10^5 cells/mL in RPMI 1640 medium containing 0.5% FBS and 0.1% BSA. 100 μL of this suspension was seeded in the upper chamber of the transwell filter. Cells were allowed to migrate for 24 h at 37° C. and then fixed with 10% formalin for 15 min and stained with 0.5% crystal violet. Non-migrated cells in the upper chamber of transwell filters were removed with a cotton swab, viewed under a light microscope, and counted.
as §2

PC12 cells [6] = test: Immunostaining of actin stress fibers and focal adhesions; type: cell-based, rat; conditions: PC12 cells on coated chamber slides, 3 h, serum-free
Procedure: Specifically, for immunostaining, PC12 cells were incubated on Lab-Tek chamber slides (Nalge Nunc International, Rochester, N.Y.) coated with laminin (5 μg/mL), rLG domain proteins (25 μg/mL), or Scrambled peptide (SP) (25 μg/well) in serum-free medium for 3 h at 37° C. Lab-Tek chamber slides were coated with BSA for the control. After rinsing with PBS, PC12 cells were fixed with 3.7% formalin for 20 min and permeabilized with 0.5% Triton X-100 for 5 min. PC12 cells were incubated with primary antibodies for 12 h at 4° C. The primary antibodies used were 1:500 anti-vinculin (Sigma-Aldrich 9131), or 1:300 rhodamin-phalloidin (Invitrogen R154) antibodies. After rinsing with PBS, PC12 cells were immunostained with FITC-conjugated anti-mouse IgG antibody (Jackson ImmunoResearch Laboratories, West Grove, Pa.) or rhodamin-conjugated anti-mouse IgG antibody (Santa Cruz Biotechnology) for 1 h at room temperature. After being washed three times with PBS, the stained PC12 cells were mounted and photographed using a confocal laser scanning microscope (FV300; Olympus, Japan).

PC12 cells [7] = test: Summary of cell adhesion, spreading, migration and neurite outgrowth promotive effects; type: cell-based, rat; conditions: summary statement of the description
Procedure: as §3

PC12 cells [8] = test: Effect of calphostin C pretreatment on cell adhesion; type: cell-based, rat; conditions: PC12 cells, 0.05, 0.1, 0.5 μM, 15 min; 1 h
Procedure: PC12 cells were pretreated with 0.05 μM, 0.1 μM, and 0.5 μM of calphostin C for 15 min at 37° C. and then incubated on plates coated with rLG3 or the Ln2-LG3-P2 peptide for 1 h.

PC12 cells [9] = conditions: at the indicated concentrations and duration of treatment
PC12 cells [10] = test: Neurite outgrowth assay; type: cell-based, rat; conditions: PC12 cells on coated plates, serum-free, 24 h + 72 h
Procedure: Laminin, rLG domain protein, and the peptide were coated onto plates and cells were seeded on the plates in serum-free medium and incubated for 24 h. After changing with serum-free medium again, cells were further cultured for 72 h and neurite outgrowth was examined.

PC12 cells [11] = test: Inhibition of cell adhesion to laminin by rLG3 / rLG3-M1 pretreatment; type: cell-based, rat; conditions: PC12 cells pretreated with 250 μg/mL; laminin 5 μg/mL
Procedure: In addition, PC12 cells were pretreated with rLG3 (250 or 500 μg/mL) or vehicle (phosphate buffer, pH 3.0) for 30 min and then seeded on plates coated with laminin (5 μg/mL) for 30 min in serum-free medium and cell adhesion was observed.

O=C(O)CN(CCN(CC(=O)O)CC(=O)O)CC(=O)O [EDTA]
cell adhesion to laminin after pretreatment (PC12 cells [1]): completely inhibited
cell adhesion to rLG3 or Ln2-LG3-P2 after pretreatment (PC12 cells [1]): partially inhibited
cell spreading to laminin after pretreatment (PC12 cells [1]): completely inhibited
cell spreading to rLG3 or Ln2-LG3-P2 after pretreatment (PC12 cells [1]): partially inhibited

[Cl][Mn][Cl] [Mn^2+, MnCl2]
cell adhesion to laminin after pretreatment (PC12 cells [1]): significantly enhanced
cell adhesion to rLG3 or Ln2-LG3-P2 after pretreatment (PC12 cells [1]): significantly enhanced
cell spreading to laminin after pretreatment (PC12 cells [1]): significantly enhanced
cell spreading to rLG3 or Ln2-LG3-P2 after pretreatment (PC12 cells [1]): significantly enhanced

Ln2-LG3-P2A: Ln2-LG3-P2 peptide synthesized by substituting Arg with Ala (ANIPPFEGCIWN-NH2)
cell adhesion compared to the control group Ln2-LG3-P2 (PC12 cells [2]; PC12 cells on plates coated with peptide (500 μg/mL, FIG. 3H)): significantly inhibited
inhibition of cell adhesion to rLG3 (in words) (PC12 cells [3]): did not inhibit

NWEIRCIPGNPF (NWEIRCIPGNPF-NH2) [scrambled peptide, scrambled peptide of Ln2-LG3-P2 peptide, negative control, reference compound]
cell spreading (PC12 cells [4]): entirely ineffective
cell migration (PC12 cells [5]): entirely ineffective
actin stress fiber formation and focal adhesions (PC12 cells [6]): did not organize actin stress fibers
cell spreading (immunostaining) (PC12 cells [6]): no effect on spreading

PFEGCIWN (PFEGCIWN-NH2) [Ln2-LG3-P2-DN4, N-terminal truncated Ln2-LG3-P2]
cell migration (PC12 cells [5]): did not show cell migration activity

PPFEGCIWN (PPFEGCIWN-NH2) [Ln2-LG3-P2-DN3, N-terminal truncated Ln2-LG3-P2]
cell adhesion, spreading, migration, and neurite outgrowth promotive effects (PC12 cells [7]): significantly excellent

RNIPPFEGCIWNLVINSVPMDFAR (RNIPPFEGCIWNLVINSVPMDFAR-NH2) [Ln2-LG3-P2-AC1, C-terminal added Ln2-LG3-P2]
cell adhesion, spreading, migration, and neurite outgrowth promotive effects (PC12 cells [7]): significantly excellent

RNIPPFEGCIWNLVINSVPMDFARPVSFKNADIGRC (RNIPPFEGCIWNLVINSVPMDFARPVSFKNADIGRC-NH2; cysteine pairing not given here) [Ln2-LG3-P2-AC2, C-terminal added Ln2-LG3-P2]
cell adhesion, spreading, migration, and neurite outgrowth promotive effects (PC12 cells [7]): significantly excellent

calphostin C
cell adhesion activities to laminin, rLG3, and Ln2-LG3-P2 after inhibitor pretreatment (PC12 cells [8]): significantly inhibited in a dose-dependent manner
cell growth (PC12 cells [9]): did not affect cell growth

rLG3-M1: mutant rLG3 protein, Arg in the Ln2-LG3-P2 site substituted with Ala (ANIPPFEGCIWN) (rLG3-M1)
cell adhesion (PC12 cells [2]; PC12 cells on coated plates, 1 h, serum-free, laminin 5 μg/mL, rLG proteins 25 μg/mL, peptides 62.5 μg/mL (0 to 125 μg/mL in FIG. 2B)): significantly reduced levels
cell spreading (PC12 cells [4]): significantly reduced levels
cell migration (PC12 cells [5]): significantly reduced levels
neurite outgrowth (PC12 cells [10]): significantly reduced levels
inhibition of cell adhesion to laminin (in words) (PC12 cells [11]): did not inhibit

From patent publication US9314510B2, “Human laminin α2 chain LG3 domain and active peptides promoting cell adhesion, spreading, migration, and neurite outgrowth” (SNU R&DB Foundation, priority 2011, dated 2016)
